These results are taken from US11912686B2 (Gilead Sciences, Inc., priority 2020, dated 2024).

This experiment deals with human LPAR1 (Homo sapiens (Human), UniProt Q92633). Briefly: LPAR1 intracellular calcium mobilization assay (antagonist mode, FLIPR). To be noted: CHO-K1 EDG2 cells expressing human LPAR1, LPA 18:2 at EC80 (100 nM), test compound 0.5 nM to 10 μM. The experiment is classed as cell-based. (A change in cytosolic calcium serves as a functional read-out for many receptors and channels.)
Chain of human LPAR1 (Q92633 whole entry): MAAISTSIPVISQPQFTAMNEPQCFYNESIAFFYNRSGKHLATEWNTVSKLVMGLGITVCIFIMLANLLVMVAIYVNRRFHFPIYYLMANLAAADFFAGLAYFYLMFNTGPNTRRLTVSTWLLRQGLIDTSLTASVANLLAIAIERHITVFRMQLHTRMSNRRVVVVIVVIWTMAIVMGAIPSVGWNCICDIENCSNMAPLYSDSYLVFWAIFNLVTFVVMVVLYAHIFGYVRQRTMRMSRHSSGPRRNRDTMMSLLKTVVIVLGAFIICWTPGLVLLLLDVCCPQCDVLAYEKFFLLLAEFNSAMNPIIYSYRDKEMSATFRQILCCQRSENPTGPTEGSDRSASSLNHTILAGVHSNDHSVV
One may read the EC50 as the midpoint of the concentration-response curve. Consider `C[C@@H](OC(=O)Nc1c(-c2ncc(NC(=O)c3ccc(C(F)(F)F)nc3)cn2)nnn1C)c1cc(F)cnc1Cl` [Compound 332, (R)-1-(2-chloro-5-fluoropyridin-3-yl)ethyl (1-methyl-4-(5-(6-(trifluoromethyl)nicotinamido)pyrimidin-2-yl)-1H-1,2,3-triazol-5-yl)carbamate], for which the half-maximal effective concentration (EC50) was 354 nM.
In the case of `C[C@@H](OC(=O)Nc1c(-c2ccc(NC(=O)[C@@H]3C[C@@H]3F)cn2)nnn1C)c1cccnc1Cl` [Compound 53, (R)-1-(2-chloropyridin-3-yl)ethyl (4-(5-((1S,2S)-2-fluorocyclopropane-1-carboxamido)pyridin-2-yl)-1-methyl-1H-1,2,3-triazol-5-yl)carbamate] it was 1460 nM.
Take `C[C@@H](OC(=O)Nc1c(-c2ccc(NC(=O)C3(C#N)CC3)c(F)n2)nnn1C)c1cccnc1Cl` [Compound 316, (R)-1-(2-chloropyridin-3-yl)ethyl (4-(5-(1-cyanocyclopropane-1-carboxamido)-6-fluoropyridin-2-yl)-1-methyl-1H-1,2,3-triazol-5-yl)carbamate]: the EC50 turned out to be 41.6 nM.
The result for `C[C@@H](OC(=O)Nc1c(-c2ccc(NC(=O)C3CC(F)(F)C3)cn2)nnn1C)c1cccnc1F` [Compound 171, (R)-1-(2-fluoropyridin-3-yl)ethyl (4-(5-(3,3-difluorocyclobutane-1-carboxamido)pyridin-2-yl)-1-methyl-1H-1,2,3-triazol-5-yl)carbamate] reads 140 nM; that for `Cc1cc(C(=O)Nc2ccc(-c3nnn(C)c3NC(=O)O[C@H](C)c3cc(F)cnc3F)nc2)cnn1` [Compound 231, (R)-1-(2,5-difluoropyridin-3-yl)ethyl (1-methyl-4-(5-(6-methylpyridazine-4-carboxamido)pyridin-2-yl)-1H-1,2,3-triazol-5-yl)carbamate], 412 nM; that for `C[C@@H](OC(=O)Nc1c(-c2ccc(NC(=O)c3cn[nH]c3)cn2)nnn1C)c1cccnc1Cl` [Compound 113, (R)-1-(2-chloropyridin-3-yl)ethyl (4-(5-(1H-pyrazole-4-carboxamido)pyridin-2-yl)-1-methyl-1H-1,2,3-triazol-5-yl)carbamate], 775 nM.
As to `C[C@@H](OC(=O)Nc1c(-c2ccc(NC(=O)C3CCC3(F)F)cn2)nnn1C)c1cccnc1Cl` (stereo partly drawn) [Compound 63, (R)-1-(2-chloropyridin-3-yl)ethyl (4-(5-(2,2-difluorocyclobutane-1-carboxamido)pyridin-2-yl)-1-methyl-1H-1,2,3-triazol-5-yl)carbamate], the EC50 is 120 nM.
